Experimental data reported in patent US7872030B2, “Use of 2-[5-(4-fluorophenyl)-3-pyridylmethylaminomethyl]-chromane and its physiologically acceptable salts” (Merck Patent GmbH, priority 2001, dated 2011).

Tests used:
[1] = test system: catalepsy induced by haloperidol; assay: Catalepsy induced by conventional antidopaminergic drugs such as haloperidol; assay type: in vivo, rat; settings: same dose-range as effective in the animal models
Protocol: Extrapyramidal motor side effects in e.g. rodents are measured by the ability of a drug to induce catalepsy. Catalepsy is defined as a state where an animal continues to remain in an unnormal (nonphysiological ‘uncomfortable’) posture for a long time (e.g.: M. E. Stanley and S. D. Glick, Neuropharmacology, 1996; 15: 393-394; C. J. E. Niemegeers and P. Janssen, Life Sci., 1979, […]). For example, if a hindpaw of a rat is placed on an elevated level, e.g. a platform elevated 3 cm above ground level, a normal rat immediately withdraws the hindpaw from the platform to the ground level. A cataleptic rat remains in this unnatural posture even for minutes.

[2] = test system: Parkinsonian cynomolgus monkey; assay: Adverse effects of chronic l-dopa therapy in MPTP Parkinsonian cynomolgus monkey; assay type: in vivo; settings: MPTP monkeys chronically treated with l-dopa
Protocol: Treatment of adverse effects of conventional anti-Parkinsonian drugs as defined above are determined in a modification of the animal model of the Parkinsonian cynomolgus monkey according to P. J. Blanchet et al., Exp. Neurology 1998; 153: 214-222. Monkeys render parkinsonian by repeated injections of 1-methyl-4-phenyl-1,2,3,6-tetrahydropyridine (MPTP). The Parkinsonian monkeys are chronically treated with the standard l-dopa therapy according to P. J. Blanchet et al., Mov. Disord., 1998; 13: 798-802. Longterm treatment with l-dopa induces extrapyramidal motor side effects and psychotic states which are both qualitatively and quantitatively, assessed by the Abnormal Involuntary Movement Scale (P. J. Blanchet et al., Mov. Disord. 1998; 13: 798-802) for different body parts (face, neck, trunk, each limb) and by rating for psychotic states by observing the monkey's attention, reactivity and mobility.

[3] = test system: 3-NP treated rats; assay: Systemic 3-nitropropionic acid (3-NP) model in rats; assay type: in vivo, rat; settings: for nocturnal akinesia (hypoactivity): after four injections of 3-NP (late Huntington's disease); for nocturnal hyperactivity: after two injections of 3-NP (early Huntington's disease)
Text: A typical animal model is the systemic 3-nitropropionic acid (3-NP) model in rats according to C. V. Borlongan et al., Brain Res., 1995; 697: 254-257. […] After two injections of 3-NP, rats display nocturnal hyperactivity reflecting symptoms of early Huntington's disease, whereas rats treated with four injections of 3-NP display nocturnal akinesia (hypoactivity) reflecting symptoms of late Huntington's disease. Nocturnal activity is automatically measured in conventional acitivity cages by infrared beams.

[4] = test system: patients with Huntington's disease; assay: Trial in patients with Huntington's disease; assay type: in vivo, human; settings: add on, 2.5 to 20 mg b.i.d., vs placebo
Protocol: A typical trial to establish the effect of the compounds according to the invention on chorea, voluntary motor performance, and functional disability in patients with Huntington's disease encompasses 32 genetically diagnosed patients. […] The dose of blinded medication is titrated over a period of 3 weeks in a range from 2.5 to 20 mg b.i.d. Then the medication is held constant for 1 week. Assessments are performed in the week before and at the last day of the trial. Chorea is scored using the abnormal involuntary movement scale (AIMS, W. Guy, in: ECDEU assessment manual. Rockville Md.: US dept. of health, education and welfare, 1976: 534-537), the unified Huntington's disease rating scale (UHDRS, Huntington study group, 1996, Movement Disord, 11: 136-42), and judgement of video recordings. Voluntary motor performance is assessed using the UHDRS motor scale. Patients and their partners complete a questionnaire regarding functional disability.

[5] = test system: patients with cervical dystonia (spasmodic torticollis); assay: Double-blind, placebo-controlled study in cervical dystonia (TWSTRS); assay type: in vivo, human; settings: 2.5 mg to 20 mg b.i.d.
[6] = test system: Pietrain pig; assay: Campus Syndrome in the Pietrain pig (tremor); assay type: in vivo
Text: Typical genetic models in mutant animals are the Campus Syndrome in the Pietrain pig according to A. Richter et al. (Exp. Neurology, 1995; 134: 205-213) or the Weaver mutant mouse according to J. R. Simon and B. Ghetti (Mol. Neurobiol., 1994; 9: 183-189). In the Campus Syndrome model, these mutant pigs show a high-frequency tremor when standing and during locomotion, but not while lying at rest. Assessment of tremor is made by accelerometric recording. In the Weaver mutant mouse, degenerative cerebellar atrophy is fould in association with tremor, gait instability, and toppling over the sides after a few steps.

[7] = test system: oxotremorine-induced tremor; assay: Oxotremorine-induced tremor; settings: in vivo
Protocol: A typical animal model for drug-induced tremors is the oxotremorine-induced tremor (e.g. H. Hallberg and O. Almgren, Acta Physiol. Scand., 1987; 129: 407-13; J. G. Clement and W. R. Dyck, J. Pharmacol. Meth., 1989; 22: 25-36). Oxotremorine induces tremor which is measured by a rating scale.

For `Fc1ccc(-c2cncc(CNC[C@@H]3CCc4ccccc4O3)c2)cc1` [(S)-(+)-2-[5-(4-fluorophenyl)-3-pyridylmethylaminomethyl]-chromane], which “prevention of catalepsy induced by conventional antidopaminergic drugs” value [1] is on record?
Its value is “able to prevent catalepsy”.

And the “reversal of already existing catalepsy induced by conventional antidopaminergic drugs such as haloperidol” value [1]?
Its value is “reverses already existing catalepsy”.

And the “overall choreiform dyskinesias and dystonic dyskinesias (Abnormal Involuntary Movement Scale)” value [2]?
Its value is “reduced”.

And the “psychotic states (attention, reactivity, mobility rating)” value [2]?
The value was “reduced”.

And the “nocturnal akinesia (hypoactivity)” value [3]?
Its value is “reduce”.

What about the nocturnal hyperactivity [3] of the same compound?
Its nocturnal hyperactivity is “reduce”.

What about the “voluntary and involuntary motor performance (AIMS, UHDRS, video)” value [4] of the same compound?
Its value is “significant improvement”.

What about the TWSTRS scores [5] of the same compound?
Its TWSTRS scores is “significant improvement”.

What about the “tremor when standing and during locomotion” value [6] of the same compound?
The value was “reduce disabling tremor”.

What about the “oxotremorine-induced tremors (rating scale)” value [7] of the same compound?
The value was “inhibit oxotremorine-induced tremors”.

For `Fc1ccc(-c2cncc(CNCC3CCc4ccccc4O3)c2)cc1` (racemic) [(R/S)-(−/+)-2-[5-(4-fluorophenyl)-3-pyridylmethylaminomethyl]-chromane], which “prevention of catalepsy induced by conventional antidopaminergic drugs” value [1] is on record?
Its value is “able to prevent catalepsy”.

And the “reversal of already existing catalepsy induced by conventional antidopaminergic drugs such as haloperidol” value [1]?
Its value is “reverses already existing catalepsy”.

And the “overall choreiform dyskinesias and dystonic dyskinesias (Abnormal Involuntary Movement Scale)” value [2]?
Its value is “reduced”.

What about the “psychotic states (attention, reactivity, mobility rating)” value [2] of the same compound?
Its value is “reduced”.

And the “nocturnal akinesia (hypoactivity)” value [3]?
Its value is “reduce”.

What about the nocturnal hyperactivity [3] of the same compound?
The nocturnal hyperactivity was “reduce”.

What about the “voluntary and involuntary motor performance (AIMS, UHDRS, video)” value [4] of the same compound?
Its value is “significant improvement”.

What about the TWSTRS scores [5] of the same compound?
The TWSTRS scores was “significant improvement”.

What about the “tremor when standing and during locomotion” value [6] of the same compound?
Its value is “reduce disabling tremor”.

What about the “oxotremorine-induced tremors (rating scale)” value [7] of the same compound?
Its value is “inhibit oxotremorine-induced tremors”.
